From PMC9180407, “Unraveling the Binding Mechanism of Alzheimer’s Drugs with Irisin: Spectroscopic, Calorimetric, and Computational Approaches” (International Journal of Molecular Sciences, 2022)
Read-outs that look alike come from different tables or passages of the source.

Molecular target: T1, irisin (Homo sapiens, UniProt Q8NAU1)
T1 construct: gene FNDC5; irisin (secreted ectodomain cleaved from FNDC5), His tag with 3C site (pET15b-His-3C-irisin), tag cleavage not mentioned, E. coli C41-DE3, Ni-NTA purified
T1 sequence (Q8NAU1 80-191 limits assumed): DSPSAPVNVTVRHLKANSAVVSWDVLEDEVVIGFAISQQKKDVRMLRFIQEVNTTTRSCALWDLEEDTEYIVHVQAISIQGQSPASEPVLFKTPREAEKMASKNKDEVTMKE
Test: isothermal titration calorimetry
Type: binding
From the text: isothermal titration calorimetry on irisin

| Structure (SMILES) | Kd (read-out: Ka1 (converted)) [µM] | Kd (read-out: Ka2 (converted)) [µM] |
| --- | --- | --- |
| CNCCC(Oc1ccc(C(F)(F)F)cc1)c1ccccc1 (stereo not drawn) [fluoxetine] | 0.156 |  |
| COc1ccc2c3c1O[C@H]1C[C@@H](O)C=C[C@@]31CCN(C)C2 [galantamine] |  | 8.06 |
| CC12CC3CC(C)(C1)CC(N)(C3)C2 [memantine] |  | 9.35 |
